Data reported in patent publication US8586579B2, “Anellated pyridine compounds” (Hoffmann-La Roche Inc., priority 2010, dated 2013).
Where two headings read alike, the source gives them in different places.

Tests used:
[1] = target: human D2 receptor (Homo sapiens (Human), UniProt P14416); assay: Radioligand binding assay, [3H]-spiperone, human D2 receptor; settings: membranes of HEK293 EBNA cells expressing human D2; 0.7 nM [3H]-spiperone
Summary of the method: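 Competition binding used ~0.7 nM [3H]-spiperone, 1 h at room temperature, pH 7.4 Tris/salt buffer, on transiently transfected HEK293 EBNA membranes bearing human D2.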

[2] = target: human D3 receptor (Homo sapiens (Human), UniProt P35462); assay: Radioligand binding assay, [3H]-spiperone, human D3 receptor; settings: membranes of HEK293 EBNA cells expressing human D3; 0.5 nM [3H]-spiperone
Summary of the method: (§1)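 Incubation was 1 h at RT, using 1.1 nM [3H]-ketanserin at 5-HT2A or 0.5 nM [3H]-spiperone at D3, on membranes of transiently transfected HEK293 EBNA cells. Nonspecific binding was set with 10 μM unlabelled spiperone.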

[3] = target: human 5-HT2A receptor (Homo sapiens (Human), UniProt P28223); assay: Radioligand binding assay, [3H]-ketanserin, human 5-HT2A receptor
Summary of the method: as §1

[4] = membranes of HEK293 EBNA cells expressing human 5-HT2A, 1.1 nM [3H]-ketanserin

human D3 receptor, sequence (P35462 whole entry): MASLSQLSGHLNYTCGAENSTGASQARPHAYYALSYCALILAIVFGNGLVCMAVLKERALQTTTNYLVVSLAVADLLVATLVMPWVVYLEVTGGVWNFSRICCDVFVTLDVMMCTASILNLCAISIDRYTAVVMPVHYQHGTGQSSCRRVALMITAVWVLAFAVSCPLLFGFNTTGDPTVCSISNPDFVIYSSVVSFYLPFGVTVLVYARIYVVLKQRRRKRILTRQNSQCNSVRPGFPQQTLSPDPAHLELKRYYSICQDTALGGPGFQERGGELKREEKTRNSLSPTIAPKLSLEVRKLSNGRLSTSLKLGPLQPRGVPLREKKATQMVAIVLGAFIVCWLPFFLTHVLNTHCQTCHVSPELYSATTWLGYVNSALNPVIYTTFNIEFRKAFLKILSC
human D2 receptor, sequence (P14416 whole entry): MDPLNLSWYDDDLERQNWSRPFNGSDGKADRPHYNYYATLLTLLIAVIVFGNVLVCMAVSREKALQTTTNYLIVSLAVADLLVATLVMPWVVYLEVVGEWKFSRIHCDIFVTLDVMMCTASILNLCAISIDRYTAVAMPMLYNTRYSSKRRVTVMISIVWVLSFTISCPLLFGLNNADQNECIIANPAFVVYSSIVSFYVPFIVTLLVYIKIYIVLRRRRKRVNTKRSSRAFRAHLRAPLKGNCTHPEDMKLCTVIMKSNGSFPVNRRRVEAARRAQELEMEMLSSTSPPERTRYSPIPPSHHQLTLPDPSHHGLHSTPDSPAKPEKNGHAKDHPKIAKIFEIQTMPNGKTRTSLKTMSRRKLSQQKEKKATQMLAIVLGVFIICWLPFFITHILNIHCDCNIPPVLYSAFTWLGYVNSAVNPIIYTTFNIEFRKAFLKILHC
human 5-HT2A receptor, sequence (P28223 whole entry): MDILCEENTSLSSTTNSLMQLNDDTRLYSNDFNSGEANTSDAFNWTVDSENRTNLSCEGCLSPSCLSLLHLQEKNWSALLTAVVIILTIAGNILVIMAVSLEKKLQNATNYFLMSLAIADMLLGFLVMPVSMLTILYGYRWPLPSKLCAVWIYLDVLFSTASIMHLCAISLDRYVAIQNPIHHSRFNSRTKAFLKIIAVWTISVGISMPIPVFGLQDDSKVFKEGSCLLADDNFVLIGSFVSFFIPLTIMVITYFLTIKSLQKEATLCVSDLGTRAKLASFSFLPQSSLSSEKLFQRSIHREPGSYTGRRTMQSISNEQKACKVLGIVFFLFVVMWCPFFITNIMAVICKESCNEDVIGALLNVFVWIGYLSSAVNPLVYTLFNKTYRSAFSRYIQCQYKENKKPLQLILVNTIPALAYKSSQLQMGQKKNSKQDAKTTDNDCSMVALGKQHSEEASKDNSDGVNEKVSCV

Row | Structure (SMILES) | Ki [1] [nM] | Ki [2] [nM] | Ki [3, 4] [nM] | melting point [°C] | Ki [3] [nM]
1 | O=C(CO)N[C@H]1CC[C@H](CCN2CCN(c3nccc4c3CCO4)CC2)CC1 [Example 40, trans-N-(4-{2-[4-(2,3-Dihydrofuro[3,2-c]pyridin-4-yl)-piperazin-1-yl]-ethyl}-cyclohexyl)-hydroxyacetamide] | 1570 | 15.9 | 12.2 | 237 | –
2 | O=C(CCO)N[C@H]1CC[C@H](CCN2CCN(c3nccc4c3CCO4)CC2)CC1 [Example 41, trans-N-(4-{2-[4-(2,3-Dihydrofuro[3,2-c]pyridin-4-yl)-piperazin-1-yl]-ethyl}-cyclohexyl)-3-hydroxypropanamide] | 734 | 11.5 | – | 173 | 35.7
3 | O=C(N[C@H]1CC[C@H](CCN2CCN(c3nccc4c3CCO4)CC2)CC1)c1ccccc1 [Example 44, trans-N-(4-{2-[4-(2,3-Dihydro-furo[3,2-c]pyridin-4-yl)-piperazin-1-yl]-ethyl}-cyclohexyl)-benzamide] | 481 | 7.66 | 7.63 | 207.5 | –
4 | O=C(N[C@H]1CC[C@H](CCN2CCN(c3nccc4c3CCO4)CC2)CC1)c1ccc(F)cc1 [Example 45, trans-N-(4-{2-[4-(2,3-Dihydro-furo[3,2-c]pyridin-4-yl)-piperazin-1-yl]-ethyl}-cyclohexyl)-4-fluoro-benzamide] | 342 | 10.7 | – | 209.5 | 11.1
5 | O=C(N[C@H]1CC[C@H](CCN2CCN(c3nccc4c3CCO4)CC2)CC1)c1ccc(Cl)cc1 [Example 46, trans-4-Chloro-N-(4-{2-[4-(2,3-dihydro-furo[3,2-c]pyridin-4-yl)-piperazin-1-yl]-ethyl}-cyclohexyl)-benzamide] | 289 | 13.2 | – | 226.5 | 14.8
6 | O=C(N[C@H]1CC[C@H](CCN2CCN(c3nccc4c3CCO4)CC2)CC1)c1ccc(C(F)(F)F)cc1 [Example 47, trans-N-(4-{2-[4-(2,3-Dihydro-furo[3,2-c]pyridin-4-yl)-piperazin-1-yl]-ethyl}-cyclohexyl)-4-trifluoromethyl-benzamide] | 871 | 57 | 18.8 | 227 | –
7 | CS(=O)(=O)N[C@H]1CC[C@H](CCN2CCN(c3nccc4c3CCO4)CC2)CC1 [Example 48, trans-N-(4-{2-[4-(2,3-Dihydro-furo[3,2-c]pyridin-4-yl)-piperazin-1-yl]-ethyl}-cyclohexyl)-methanesulfonamide] | 1270 | 31.6 | 21.7 | 220 | –
8 | CCS(=O)(=O)N[C@H]1CC[C@H](CCN2CCN(c3nccc4c3CCO4)CC2)CC1 [Example 49, Ethanesulfonic acid trans-(4-{2-[4-(2,3-dihydro-furo[3,2-c]pyridin-4-yl)-piperazin-1-yl]-ethyl}-cyclohexyl)-amide] | 1090 | 22 | – | 224 | 17.6
9 | O=S(=O)(N[C@H]1CC[C@H](CCN2CCN(c3nccc4c3CCO4)CC2)CC1)c1ccc(F)cc1 [Example 50, trans-N-(4-{2-[4-(2,3-Dihydro-furo[3,2-c]pyridin-4-yl)-piperazin-1-yl]-ethyl}-cyclohexyl)-4-fluoro-benzenesulfonamide] | 240 | 6.72 | 39.4 | 221 | –
10 | O=C(CC1CC1)N[C@H]1CC[C@H](CCN2CCN(c3nccc4c3CCO4)CC2)CC1 [Example 51, trans-2-Cyclopropyl-N-(4-{2-[4-(2,3-dihydro-furo[3,2-c]pyridin-4-yl)-piperazin-1-yl]-ethyl}-cyclohexyl)-acetamide] | 587 | 5.07 | – | 193 | 13.7
11 | O=C(N[C@H]1CC[C@H](CCN2CCN(c3nccc4c3CCO4)CC2)CC1)C1CCC1 [Example 52, Cyclobutanecarboxylic acid trans-(4-{2-[4-(2,3-dihydro-furo[3,2-c]pyridin-4-yl)-piperazin-1-yl]-ethyl}-cyclohexyl)-amide] | 555 | 15.7 | 10.1 | 202 | –
12 | C[C@]1(O)CC[C@H](C(=O)N[C@H]2CC[C@H](CCN3CCN(c4nccc5c4CCO5)CC3)CC2)CC1 [Example 54, trans-4-Hydroxy-4-methyl-cyclohexanecarboxylic acid trans-(4-{2-[4-(2,3-dihydro-furo[3,2-c]pyridin-4-yl)-piperazin-1-yl]-ethyl}-cyclohexyl)-amide] | 506 | 51.4 | 12.6 | 171 | –
13 | C[C@]1(O)CC[C@@H](C(=O)N[C@H]2CC[C@H](CCN3CCN(c4nccc5c4CCO5)CC3)CC2)CC1 [Example 55, cis-4-Hydroxy-4-methyl-cyclohexanecarboxylic acid trans-(4-{2-[4-(2,3-dihydro-furo[3,2-c]pyridin-4-yl)-piperazin-1-yl]-ethyl}-cyclohexyl)-amide] | 475 | 45.3 | 6.14 | 216.5 | –
14 | O=C(N[C@H]1CC[C@H](CCN2CCN(c3nccc4c3CCO4)CC2)CC1)c1ccc(N2CCCCC2)cc1 [Example 56, trans-N-(4-{2-[4-(2,3-Dihydro-furo[3,2-c]pyridin-4-yl)-piperazin-1-yl]-ethyl}-cyclohexyl)-4-piperidin-1-yl-benzamide] | 5340 | 44.3 | – | 214.5 | 19.2
15 | O=C(N[C@H]1CC[C@H](CCN2CCN(c3nccc4c3CCO4)CC2)CC1)c1ccc(N2CCOCC2)cc1 [Example 57, trans-N-(4-{2-[4-(2,3-Dihydro-furo[3,2-c]pyridin-4-yl)-piperazin-1-yl]-ethyl}-cyclohexyl)-4-morpholin-4-yl-benzamide] | 867 | 16.9 | 4.52 | 228.5 | –
16 | O=C(N[C@H]1CC[C@H](CCN2CCN(c3nccc4c3CCO4)CC2)CC1)C1(O)CC1 [Example 58, 1-Hydroxy-cyclopropanecarboxylic acid trans-(4-{2-[4-(2,3-dihydro-furo[3,2-c]pyridin-4-yl)-piperazin-1-yl]-ethyl}-cyclohexyl)-amide] | 593 | 27.1 | 5.92 | 174.5 | –
17 | N#CCC(=O)N[C@H]1CC[C@H](CCN2CCN(c3nccc4c3CCO4)CC2)CC1 [Example 59, trans-2-Cyano-N-(4-{2-[4-(2,3-dihydro-furo[3,2-c]pyridin-4-yl)-piperazin-1-yl]-ethyl}-cyclohexyl)-acetamide] | 702 | 7.74 | – | 188 | 15.7
18 | O=C(CC(F)(F)F)N[C@H]1CC[C@H](CCN2CCN(c3nccc4c3CCO4)CC2)CC1 [Example 60, trans-N-(4-{2-[4-(2,3-Dihydro-furo[3,2-c]pyridin-4-yl)-piperazin-1-yl]-ethyl}-cyclohexyl)-3,3,3-trifluoro-propionamide] | 688 | 6.55 | 11 | 195.5 | –
19 | O=C(N[C@H]1CC[C@H](CCN2CCN(c3nccc4c3CCO4)CC2)CC1)C1CC1 [Example 63, Cyclopropanecarboxylic acid trans-(4-{2-[4-(2,3-dihydro-furo[3,2-c]pyridin-4-yl)-piperazin-1-yl]-ethyl}-cyclohexyl)-amide] | 486 | 18.5 | 11.1 | 213 | –
20 | CO[C@H]1CC[C@H](CC(=O)N[C@H]2CC[C@H](CCN3CCN(c4nccc5c4CCO5)CC3)CC2)CC1 [Example 65, trans-N-(4-{2-[4-(2,3-Dihydro-furo[3,2-c]pyridin-4-yl)-piperazin-1-yl]-ethyl}-cyclohexyl)-2-trans-(4-methoxy-cyclohexyl)-acetamide] | 2450 | 24.1 | 14.9 | 192.5 | –
21 | CN(C)S(=O)(=O)N[C@H]1CC[C@H](CCN2CCN(c3nccc4c3CCO4)CC2)CC1 [Example 66, N′-trans-(4-{2-[4-(2,3-dihydro-furo[3,2-c]pyridin-4-yl)-piperazin-1-yl]-ethyl}-cyclohexyl)-N,N-dimethyl-sulfamide] | 782 | 24.9 | 11.5 | 139.5 | –
22 | O=C(C[C@H]1CCCO1)N[C@H]1CC[C@H](CCN2CCN(c3nccc4c3CCO4)CC2)CC1 [Example 68, trans-N-(4-{2-[4-(2,3-Dihydro-furo[3,2-c]pyridin-4-yl)-piperazin-1-yl]-ethyl}-cyclohexyl)-2-(R)-(tetrahydro-furan-2-yl)-acetamide] | 915 | 27.1 | – | 183 | 14.6
23 | O=C(C[C@@H]1CCCO1)N[C@H]1CC[C@H](CCN2CCN(c3nccc4c3CCO4)CC2)CC1 [Example 69, trans-N-(4-{2-[4-(2,3-Dihydro-furo[3,2-c]pyridin-4-yl)-piperazin-1-yl]-ethyl}-cyclohexyl)-2-(S)-(tetrahydro-furan-2-yl)-acetamide] | 858 | 18.1 | – | 183.5 | 24.9
